Test results published in US20240083857A1, “2-Methyl-Quinazolines” (Bayer Pharma Aktiengesellschaft, priority 2017, published 2024).

Assays:
[1] = target: K-Ras^G12C : hSOS1 interaction (Homo sapiens, UniProt Q07889); test: Biochemical assay 1: K-Ras^G12C interaction assay with hSOS1 (HTRF); format: binding; conditions: read-out: Assay 1 (KRAS-SOS Interaction) activity expressed as IC50
[2] = target: human SOS1 (loading of human K-Ras^G12C-GDP with fluorescent GTP-analog) (Homo sapiens, UniProt Q07889); test: Biochemical assay 3: K-Ras^G12C activation assay by hSOS1 (HTRF); conditions: no GTP; for IC50: read-out: Assay 3 (KRAS-Activation by SOS no GTP) activity expressed as IC50; for inhibition at 20 µM: read-out: Assay 3 (KRAS-Activation by SOS no GTP) activity expressed as % inhibition at 20 μM

SMILES | IC50 [1] | IC50 [2] | inhibition at 20 µM [2]
COc1cc2nc(C)nc(N[C@H](C)c3cccc(Br)c3)c2cc1OC [Example 191, N-[(1R)-1-(3-bromophenyl)ethyl]-6,7-dimethoxy-2-methylquinazolin-4-amine] | 174 nM | 382 nM | –
COc1cc2nc(C)nc(N[C@H](C)c3ccc(C(N)=O)cc3)c2cc1OC [Example 192, 4-{(1R)-1-[(6,7-dimethoxy-2-methylquinazolin-4-yl)amino]ethyl}benzamide] | 4590 nM | 14200 nM | –
COc1cc2nc(C)nc(N[C@H](C)c3cccc(-c4ccccc4)c3)c2cc1OC [Example 193, N-[(1R)-1-(biphenyl-3-yl)ethyl]-6,7-dimethoxy-2-methylquinazolin-4-amine] | 416 nM | 820 nM | –
COc1cc2nc(C)nc(N[C@H](C)c3cccc(C#N)c3)c2cc1OC [Example 194, 3-{(1R)-1-[(6,7-dimethoxy-2-methylquinazolin-4-yl)amino]ethyl}benzonitrile] | 493 nM | 2430 nM | –
COc1cc2nc(C)nc(N[C@H](C)c3ccc(C)cc3)c2cc1OC [Example 195, 6,7-dimethoxy-2-methyl-N-[(1R)-1-(4-methylphenyl)ethyl]quinazolin-4-amine] | 300 nM | 749 nM | –
COc1cc2nc(C)nc(N[C@H](C)c3ccc(-c4ccccc4)cc3)c2cc1OC [Example 196, N-[(1R)-1-(biphenyl-4-yl)ethyl]-6,7-dimethoxy-2-methylquinazolin-4-amine] | 2420 nM | 6100 nM | –
COc1cc2nc(C)nc(N[C@H](C)c3ccc(C4CC4)cc3)c2cc1OC [Example 197, N-[(1R)-1-(4-cyclopropylphenyl)ethyl]-6,7-dimethoxy-2-methylquinazolin-4-amine] | 268 nM | 638 nM | –
COc1cc2nc(C)nc(N[C@H](C)c3cccc(S(C)(=O)=O)c3)c2cc1OC [Example 198, 6,7-dimethoxy-2-methyl-N-{(1R)-1-[3-(methylsulfonyl)phenyl]ethyl}quinazolin-4-amine] | 291 nM | 1090 nM | –
COc1cc2nc(C)nc(N[C@H](C)c3cccc(C(N)=O)c3)c2cc1OC [Example 199, 3-{(1R)-1-[(6,7-dimethoxy-2-methylquinazolin-4-yl)amino]ethyl}benzamide] | 1730 nM | 6700 nM | –
COc1cc2nc(C)nc(N[C@H](C)c3ccc(C4=CCN(C)CC4)cc3)c2cc1OC [Example 201, 6,7-dimethoxy-2-methyl-N-{(1R)-1-[4-(1-methyl-1,2,3,6-tetrahydropyridin-4-yl)phenyl]ethyl}quinazolin-4-amine] | 19700 nM | – | 50%
COc1cc2nc(C)nc(N[C@H](C)c3cccc(C4=CCN(C)CC4)c3)c2cc1OC [Example 202, 6,7-dimethoxy-2-methyl-N-{(1R)-1-[3-(1-methyl-1,2,3,6-tetrahydropyridin-4-yl)phenyl]ethyl}quinazolin-4-amine] | 1420 nM | 5320 nM | –
C=C(C)c1ccc([C@@H](C)Nc2nc(C)nc3cc(OC)c(OC)cc23)cc1 [Example 203, 6,7-dimethoxy-2-methyl-N-{(1R)-1-[4-(prop-1-en-2-yl)phenyl]ethyl}quinazolin-4-amine] | 1370 nM | 3360 nM | –
COc1cc2nc(C)nc(N[C@H](C)c3cccc(C4CC4)c3)c2cc1OC [Example 204, N-[(1R)-1-(3-cyclopropylphenyl)ethyl]-6,7-dimethoxy-2-methylquinazolin-4-amine] | 229 nM | 640 nM | –
COc1cc2nc(C)nc(NC(C)c3cccc4sccc34)c2cc1OC (stereo not shown) [Example 205, N-[1-(1-benzothiophen-4-yl)ethyl]-6,7-dimethoxy-2-methylquinazolin-4-amine] | 73.8 nM | 126 nM | –
COc1cc2nc(C)nc(N[C@H](C)c3ccccc3)c2cc1OC [Example 206, 6,7-dimethoxy-2-methyl-N-[(1R)-1-phenylethyl]quinazolin-4-amine] | 481 nM | 1750 nM | –
COc1cc2nc(C)nc(NC(C)c3cccs3)c2cc1OC (stereo not shown) [Example 207, 6,7-dimethoxy-2-methyl-N-[1-(thiophen-2-yl)ethyl]quinazolin-4-amine] | 2730 nM | 12300 nM | –
COc1cc2nc(C)nc(NC(C)c3ccc(-c4ccccc4CN4CCC(O)C4)s3)c2cc1OC (stereo not shown) [Example 210, 1-[2-(5-{1-[(6,7-dimethoxy-2-methylquinazolin-4-yl)amino]ethyl}thiophen-2-yl)benzyl]pyrrolidin-3-ol] | 38.5 nM | 100 nM | –
COc1cc2nc(C)nc(NC(C)c3ccc(-c4ccccc4CN4CC[C@H](F)C4)s3)c2cc1OC (stereo partly drawn) [Example 211, N-{1-[5-(2-{[(3S)-3-fluoropyrrolidin-1-yl]methyl}phenyl)thiophen-2-yl]ethyl}-6,7-dimethoxy-2-methylquinazolin-4-amine] | 133 nM | 233 nM | –

SMILES | IC50 [1] | IC50 [2] | inhibition at 20 µM [2]
COc1cc2nc(C)nc(NC(C)c3ccc(-c4ccccc4)o3)c2cc1OC (stereo not shown) [Example 213, 6,7-dimethoxy-2-methyl-N-[1-(5-phenylfuran-2-yl)ethyl]quinazolin-4-amine] | 6760 nM | – | 42%
COc1cc2nc(C)nc(NC(C)c3cc(Br)cc4c3OCC4)c2cc1OC (stereo not shown) [Example 214, N-[1-(5-bromo-2,3-dihydro-1-benzofuran-7-yl)ethyl]-6,7-dimethoxy-2-methylquinazolin-4-amine] | 3330 nM | 13600 nM | –
COc1cc2nc(C)nc(NC(C)c3cccc(Oc4ccccc4)c3)c2cc1OC (stereo not shown) [Example 215, 6,7-dimethoxy-2-methyl-N-[1-(3-phenoxyphenyl)ethyl]quinazolin-4-amine] | 906 nM | 2950 nM | –
COc1cc2nc(C)nc(NC(C)c3cccc(-c4nn[nH]n4)c3)c2cc1OC (stereo not shown) [Example 216, 6,7-dimethoxy-2-methyl-N-{1-[3-(2H-tetrazol-5-yl)phenyl]ethyl}quinazolin-4-amine] | 6580 nM | 16100 nM | –
COc1cc2nc(C)nc(NC(C)c3cccc4cccnc34)c2cc1OC (stereo not shown) [Example 217, 6,7-dimethoxy-2-methyl-N-[1-(quinolin-8-yl)ethyl]quinazolin-4-amine] | 8800 nM | – | 45%
COc1cc2nc(C)nc(NC(C)c3ccc(-c4cnn(CCO)c4)s3)c2cc1OC (stereo not shown) [Example 218, 2-[4-(5-{1-[(6,7-dimethoxy-2-methylquinazolin-4-yl)amino]ethyl}thiophen-2-yl)-1H-pyrazol-1-yl]ethanol] | 1960 nM | 3780 nM | –
COc1cc2nc(C)nc(NC(C)c3ccc(-c4cnc5n4CCC5)s3)c2cc1OC (stereo not shown) [Example 219, N-{1-[5-(6,7-dihydro-5H-pyrrolo[1,2-a]imidazol-3-yl)thiophen-2-yl]ethyl}-6,7-dimethoxy-2-methylquinazolin-4-amine] | 415 nM | 908 nM | –
COc1cc2nc(C)nc(NC(C)c3ccc(-c4cnn(CCN5CCCC5)c4)s3)c2cc1OC (stereo not shown) [Example 220, 6,7-dimethoxy-2-methyl-N-[1-(5-{1-[2-(pyrrolidin-1-yl)ethyl]-1H-pyrazol-4-yl}thiophen-2-yl)ethyl]quinazolin-4-amine] | 379 nM | 1010 nM | –
COc1cc2nc(C)nc(NC(C)c3ccc(-c4cnn(C5CCCC5)c4)s3)c2cc1OC (stereo not shown) [Example 221, N-{1-[5-(1-cyclopentyl-1H-pyrazol-4-yl)thiophen-2-yl]ethyl}-6,7-dimethoxy-2-methylquinazolin-4-amine] | 3060 nM | 4810 nM | –
COc1cc2nc(C)nc(NC(C)c3ccc(-c4cc[nH]n4)s3)c2cc1OC (stereo not shown) [Example 222, 6,7-dimethoxy-2-methyl-N-{1-[5-(1H-pyrazol-3-yl)thiophen-2-yl]ethyl}quinazolin-4-amine] | 3880 nM | 13500 nM | –
COc1cc2nc(C)nc(NC(C)c3ccc(-c4ccccc4CN4CCC(F)(F)C4)s3)c2cc1OC (stereo not shown) [Example 223, N-[1-(5-{2-[(3,3-difluoropyrrolidin-1-yl)methyl]phenyl}thiophen-2-yl)ethyl]-6,7-dimethoxy-2-methylquinazolin-4-amine] | 2110 nM | 7180 nM | –
COc1cc2nc(C)nc(NC(C)c3ccc4nsnc4c3)c2cc1OC (stereo not shown) [Example 229, N-[1-(2,1,3-benzothiadiazol-5-yl)ethyl]-6,7-dimethoxy-2-methylquinazolin-4-amine] | 6950 nM | – | 29%
CCOc1ccccc1-c1ccc(C(C)Nc2nc(C)nc3cc(OC)c(OC)cc23)s1 (stereo not shown) [Example 232, N-{1-[5-(2-ethoxyphenyl)thiophen-2-yl]ethyl}-6,7-dimethoxy-2-methylquinazolin-4-amine] | 9010 nM | 4040 nM | –
COc1cc2nc(C)nc(NC(C)c3ccc(-c4ccc(F)c5ccccc45)s3)c2cc1OC (stereo not shown) [Example 233, N-{1-[5-(4-fluoronaphthalen-1-yl)thiophen-2-yl]ethyl}-6,7-dimethoxy-2-methylquinazolin-4-amine] | 10400 nM | 16100 nM | –
COc1cc2nc(C)nc(NC(C)c3ccc(-c4ccc(F)cc4CN)s3)c2cc1OC (stereo not shown) [Example 234, N-[1-{5-[2-(aminomethyl)-4-fluorophenyl]thiophen-2-yl}ethyl]-6,7-dimethoxy-2-methylquinazolin-4-amine] | 75.6 nM | 92.1 nM | –
COc1cc2nc(C)nc(NC(C)c3ccc(C4=CCOCC4)s3)c2cc1OC (stereo not shown) [Example 235, N-{1-[5-(3,6-dihydro-2H-pyran-4-yl)thiophen-2-yl]ethyl}-6,7-dimethoxy-2-methylquinazolin-4-amine] | 5470 nM | 5270 nM | –
COc1cc2nc(C)nc(NC(C)c3ccc(-c4ccccc4CN4CCC(N(C)C)C4)s3)c2cc1OC (stereo not shown) [Example 238, N-{1-[5-(2-{[3-(dimethylamino)pyrrolidin-1-yl]methyl}phenyl)thiophen-2-yl]ethyl}-6,7-dimethoxy-2-methylquinazolin-4-amine] | 81.6 nM | 216 nM | –
